Publication PMC10100342, “Thiamyxins: Structure and Biosynthesis of Myxobacterial RNA‐Virus Inhibitors” (Angewandte Chemie (International Ed. in English), 2022)

Test system: DENV-R2A
Settings: ratio of IC50 values

C=C1NC(=O)C2(C)CSC(=N2)c2csc(n2)C2(C)CSC(=N2)C(C(C)CC)NC(=O)C(C)NC(=O)C(=CC(C)C)COC(=O)c2csc(n2)C(C(C)C)N(C)C(=O)C(COC)NC1=O (stereo not shown) [Thiamyxin B]
IC50 against DENV-R2A lower compared to HCov-229E-luc: fourfold
